Measurements from PubChem BioAssay AID1963445 (Molecular Pharmacology Branch, DTP, NCI, 2024).

Test system: MCF7 complex spheroid growth, % test/control
Assay: Anticancer human tumor MCF7 cell line growth inhibition [Asc];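 further: spheroids exposed to compounds for 7 days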;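 on viability, T/C: 100% = DMSO vehicle control wells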
Conditions: for IC50: curve of first compound; for viability, T/C: stronger effect = lower value
Procedure, shortened: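 Stromal components (HUVEC and hMSC) are co-assembled with the cancer cells into multicellular spheroids. Drugs are then added singly or paired, at concentrations falling by half-log increments from a clinically achievable maximum, capped at 10 microM without known Cmax.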

[1] = second compound 0.0316 µM, first compound 0.0316 µM
[2] = second compound 0.0316 µM, first compound 0.1 µM
[3] = second compound 0.0316 µM, first compound 0.316 µM
[4] = second compound 0.0316 µM, first compound 1 µM
[5] = second compound 0.1 µM, first compound 0.0316 µM
[6] = second compound 0.1 µM, first compound 0.1 µM
[7] = second compound 0.1 µM, first compound 0.316 µM
[8] = second compound 0.1 µM, first compound 1 µM
[9] = second compound 0.316 µM, first compound 0.0316 µM
[10] = second compound 0.316 µM, first compound 0.1 µM
[11] = second compound 0.316 µM, first compound 0.316 µM
[12] = second compound 0.316 µM, first compound 1 µM
[13] = second compound 1 µM, first compound 0.0316 µM
[14] = second compound 1 µM, first compound 0.1 µM
[15] = second compound 1 µM, first compound 0.316 µM
[16] = second compound 1 µM, first compound 1 µM
[17] = second compound 3.16 µM, first compound 0.0316 µM
[18] = second compound 3.16 µM, first compound 0.1 µM
[19] = second compound 3.16 µM, first compound 0.316 µM
[20] = second compound 3.16 µM, first compound 1 µM
[21] = second compound 10 µM, first compound 0.0316 µM
[22] = second compound 10 µM, first compound 0.1 µM
[23] = second compound 10 µM, first compound 0.316 µM
[24] = second compound 10 µM, first compound 1 µM

`C#Cc1c(F)ccc2cc(O)cc(-c3ncc4c(N5CC6CCC(C5)N6)nc(OCC56CCCN5CC(F)C6)nc4c3F)c12` (stereo unspecified) + Cc1c(S(C)(=O)=O)c(-c2cc(F)cc(N3CCN(c4ccc(NS(=O)(=O)c5ccc(NC(CCN6CCC(C(=O)OCCCP(=O)(O)O)CC6)CSc6ccccc6)c(S(=O)(=O)C(F)(F)F)c5)cc4)CC3)c2)c(-c2ccc(Cl)cc2)n1C(C)C gave an IC50 (second compound 0.0316 µM) greater than 10000 nM, an IC50 (second compound 0.1 µM) greater than 10000 nM and an IC50 (second compound 0.316 µM) greater than 10000 nM. For the same molecule, the IC50 (second compound 1 µM) was greater than 10000 nM, the IC50 (second compound 3.16 µM) was greater than 10000 nM and the IC50 (second compound 10 µM) was greater than 10000 nM. It also gave a viability, T/C [1] of 96.2%, a viability, T/C [2] of 90% and a viability, T/C [3] of 89.6%. For the same molecule, the viability, T/C [4] was 92.3%, the viability, T/C (second compound 0.0316 µM, first compound 3.16 µM) was 98.4% and the viability, T/C (second compound 0.0316 µM, first compound 10 µM) was 91.8%. For the same molecule, the viability, T/C [5] was 104%, the viability, T/C [6] was 103% and the viability, T/C [7] was 87.5%. The viability, T/C [8] was 84.1%, the viability, T/C (second compound 0.1 µM, first compound 3.16 µM) was 83.4% and the viability, T/C (second compound 0.1 µM, first compound 10 µM) was 82.5%. For the same molecule, the viability, T/C [9] was 91%, the viability, T/C [10] was 83% and the viability, T/C [11] was 73.7%. The viability, T/C [12] was 86.7%, the viability, T/C (second compound 0.316 µM, first compound 3.16 µM) was 88.6% and the viability, T/C (second compound 0.316 µM, first compound 10 µM) was 86.5%. It also gave a viability, T/C [13] of 86%, a viability, T/C [14] of 95.9% and a viability, T/C [15] of 81.9%. It also gave a viability, T/C [16] of 82.6%, a viability, T/C (second compound 1 µM, first compound 3.16 µM) of 79% and a viability, T/C (second compound 1 µM, first compound 10 µM) of 85.7%. The viability, T/C [17] was 80.3%, the viability, T/C [18] was 77.7% and the viability, T/C [19] was 88.7%. For the same molecule, the viability, T/C [20] was 72.5%, the viability, T/C (second compound 3.16 µM, first compound 3.16 µM) was 74.1% and the viability, T/C (second compound 3.16 µM, first compound 10 µM) was 80.5%. It also gave a viability, T/C [21] of 272%, a viability, T/C [22] of 226% and a viability, T/C [23] of 251%. It also gave a viability, T/C [24] of 292%, a viability, T/C (second compound 10 µM, first compound 3.16 µM) of 249% and a viability, T/C (second compound 10 µM, first compound 10 µM) of 196%.
Molecule `CNC(C)C(=O)NC1CN(S(=O)(=O)c2cccc(S(=O)(=O)N3CCC4CCC(C(=O)NC(c5ccccc5)c5ccccc5)N4C(=O)C(NC(=O)C(C)NC)C3)c2)CCC2CCC(C(=O)NC(c3ccccc3)c3ccccc3)N2C1=O` (stereo unspecified) + Cc1c(S(C)(=O)=O)c(-c2cc(F)cc(N3CCN(c4ccc(NS(=O)(=O)c5ccc(NC(CCN6CCC(C(=O)OCCCP(=O)(O)O)CC6)CSc6ccccc6)c(S(=O)(=O)C(F)(F)F)c5)cc4)CC3)c2)c(-c2ccc(Cl)cc2)n1C(C)C has an IC50 (second compound 0.0316 µM) of 5.15 nM, an IC50 (second compound 0.1 µM) of 6.44 nM and an IC50 (second compound 0.316 µM) of 4.92 nM. For the same molecule, the IC50 (second compound 1 µM) was 5.56 nM, the IC50 (second compound 3.16 µM) was less than 3.16 nM and the IC50 (second compound 10 µM) was 4.17 nM. For the same molecule, the viability, T/C (second compound 0.0316 µM, first compound 0.00316 µM) was 73.3%, the viability, T/C (second compound 0.0316 µM, first compound 0.01 µM) was 17.6% and the viability, T/C [1] was 15.6%. It also gave a viability, T/C [2] of 18.6%, a viability, T/C [3] of 16.3% and a viability, T/C [4] of 20.2%. It also gave a viability, T/C (second compound 0.1 µM, first compound 0.00316 µM) of 96.3%, a viability, T/C (second compound 0.1 µM, first compound 0.01 µM) of 21.4% and a viability, T/C [5] of 17.3%. For the same molecule, the viability, T/C [6] was 17%, the viability, T/C [7] was 17.7% and the viability, T/C [8] was 16.9%. For the same molecule, the viability, T/C (second compound 0.316 µM, first compound 0.00316 µM) was 65.9%, the viability, T/C (second compound 0.316 µM, first compound 0.01 µM) was 25.1% and the viability, T/C [9] was 16.4%. For the same molecule, the viability, T/C [10] was 19%, the viability, T/C [11] was 19.2% and the viability, T/C [12] was 18.8%. For the same molecule, the viability, T/C (second compound 1 µM, first compound 0.00316 µM) was 78.9%, the viability, T/C (second compound 1 µM, first compound 0.01 µM) was 20% and the viability, T/C [13] was 18.6%. It also gave a viability, T/C [14] of 19.8%, a viability, T/C [15] of 17.4% and a viability, T/C [16] of 15.9%. It also gave a viability, T/C (second compound 3.16 µM, first compound 0.00316 µM) of 37%, a viability, T/C (second compound 3.16 µM, first compound 0.01 µM) of 19.1% and a viability, T/C [17] of 18.3%. The viability, T/C [18] was 22.8%, the viability, T/C [19] was 20.4% and the viability, T/C [20] was 20.1%. The viability, T/C (second compound 10 µM, first compound 0.00316 µM) was 56%, the viability, T/C (second compound 10 µM, first compound 0.01 µM) was 31.6% and the viability, T/C [21] was 23.8%. For the same molecule, the viability, T/C [22] was 21.7%, the viability, T/C [23] was 21.5% and the viability, T/C [24] was 24%.
In the case of `Cc1nc(N2CCC3(CC2)COC(C)C3N)c(CO)nc1Sc1ccnc(N)c1Cl` (stereo unspecified) + Cc1c(S(C)(=O)=O)c(-c2cc(F)cc(N3CCN(c4ccc(NS(=O)(=O)c5ccc(NC(CCN6CCC(C(=O)OCCCP(=O)(O)O)CC6)CSc6ccccc6)c(S(=O)(=O)C(F)(F)F)c5)cc4)CC3)c2)c(-c2ccc(Cl)cc2)n1C(C)C, the IC50 (second compound 0.0316 µM) is reported as 736 nM, the IC50 (second compound 0.1 µM) is reported as 787 nM and the IC50 (second compound 0.316 µM) is reported as 491 nM. It also gave an IC50 (second compound 1 µM) of 534 nM, an IC50 (second compound 3.16 µM) of 668 nM and an IC50 (second compound 10 µM) of 789 nM. It also gave a viability, T/C (second compound 0.0316 µM, first compound 0.00949 µM) of 91.3%, a viability, T/C (second compound 0.0316 µM, first compound 0.03 µM) of 92.1% and a viability, T/C (second compound 0.0316 µM, first compound 0.0949 µM) of 90%. The viability, T/C (second compound 0.0316 µM, first compound 0.3 µM) was 88.8%, the viability, T/C (second compound 0.0316 µM, first compound 0.949 µM) was 39.1% and the viability, T/C (second compound 0.0316 µM, first compound 3 µM) was 14.7%. For the same molecule, the viability, T/C (second compound 0.1 µM, first compound 0.00949 µM) was 90.6%, the viability, T/C (second compound 0.1 µM, first compound 0.03 µM) was 79.7% and the viability, T/C (second compound 0.1 µM, first compound 0.0949 µM) was 73.7%. For the same molecule, the viability, T/C (second compound 0.1 µM, first compound 0.3 µM) was 80%, the viability, T/C (second compound 0.1 µM, first compound 0.949 µM) was 44.2% and the viability, T/C (second compound 0.1 µM, first compound 3 µM) was 14.9%. The viability, T/C (second compound 0.316 µM, first compound 0.00949 µM) was 98.3%, the viability, T/C (second compound 0.316 µM, first compound 0.03 µM) was 84.2% and the viability, T/C (second compound 0.316 µM, first compound 0.0949 µM) was 75.2%. It also gave a viability, T/C (second compound 0.316 µM, first compound 0.3 µM) of 72.8%, a viability, T/C (second compound 0.316 µM, first compound 0.949 µM) of 19.7% and a viability, T/C (second compound 0.316 µM, first compound 3 µM) of 15.5%. It also gave a viability, T/C (second compound 1 µM, first compound 0.00949 µM) of 80.5%, a viability, T/C (second compound 1 µM, first compound 0.03 µM) of 84.6% and a viability, T/C (second compound 1 µM, first compound 0.0949 µM) of 85.7%. It also gave a viability, T/C (second compound 1 µM, first compound 0.3 µM) of 81.2%, a viability, T/C (second compound 1 µM, first compound 0.949 µM) of 18.9% and a viability, T/C (second compound 1 µM, first compound 3 µM) of 15.3%. It also gave a viability, T/C (second compound 3.16 µM, first compound 0.00949 µM) of 98.3%, a viability, T/C (second compound 3.16 µM, first compound 0.03 µM) of 88.4% and a viability, T/C (second compound 3.16 µM, first compound 0.0949 µM) of 89.5%. The viability, T/C (second compound 3.16 µM, first compound 0.3 µM) was 80.6%, the viability, T/C (second compound 3.16 µM, first compound 0.949 µM) was 36.6% and the viability, T/C (second compound 3.16 µM, first compound 3 µM) was 20.5%. The viability, T/C (second compound 10 µM, first compound 0.00949 µM) was 247%, the viability, T/C (second compound 10 µM, first compound 0.03 µM) was 221% and the viability, T/C (second compound 10 µM, first compound 0.0949 µM) was 202%. For the same molecule, the viability, T/C (second compound 10 µM, first compound 0.3 µM) was 176%, the viability, T/C (second compound 10 µM, first compound 0.949 µM) was 26% and the viability, T/C (second compound 10 µM, first compound 3 µM) was 26%.
